Source: PubChem BioAssay (NCI)
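Cultured in 96-well plates, cells were exposed to test compound for 48 hours across five concentrations. The concentration for 50% growth inhibition is given as GI50. TGI: concentration producing complete growth inhibition.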

Legend:
Test in all cases: inhibition of tumour cell growth, NCI panel, 48 h
ACHN renal = system: ACHN renal
SN12C renal = system: SN12C renal
UO-31 renal = system: UO-31 renal
HS 578T breast = system: HS 578T breast
COLO 205 colon = system: COLO 205 colon
TK-10 renal = system: TK-10 renal
OVCAR-8 ovarian = system: OVCAR-8 ovarian
EKVX NSCLC = system: EKVX NSCLC
NCI-H522 lung = system: NCI-H522 lung
BT-549 breast = system: BT-549 breast
SF-268 CNS = system: SF-268 CNS
SW-620 colon = system: SW-620 colon
MCF7 breast = system: MCF7 breast
MALME-3M melanoma = system: MALME-3M melanoma
SR leukemia = system: SR leukemia
OVCAR-3 ovarian = system: OVCAR-3 ovarian
SNB-19 CNS = system: SNB-19 CNS
NCI/ADR-RES ovarian = system: NCI/ADR-RES ovarian
MDA-MB-231 breast = system: MDA-MB-231 breast
HOP-92 NSCLC = system: HOP-92 NSCLC
MDA-MB-435 = system: MDA-MB-435
786-0 renal = system: 786-0 renal
OVCAR-5 ovarian = system: OVCAR-5 ovarian
HOP-62 NSCLC = system: HOP-62 NSCLC
SNB-75 CNS = system: SNB-75 CNS
SK-MEL-5 melanoma = system: SK-MEL-5 melanoma
SF-295 CNS = system: SF-295 CNS
NCI-H23 lung = system: NCI-H23 lung
OVCAR-4 ovarian = system: OVCAR-4 ovarian
UACC-257 melanoma = system: UACC-257 melanoma
MOLT-4 leukemia = system: MOLT-4 leukemia
NCI-H226 lung = system: NCI-H226 lung
LOX IMVI melanoma = system: LOX IMVI melanoma
NCI-H460 lung = system: NCI-H460 lung
IGROV1 ovarian = system: IGROV1 ovarian
RXF 393 renal = system: RXF 393 renal
DU-145 prostate = system: DU-145 prostate
HCT-15 colon = system: HCT-15 colon
T-47D breast = system: T-47D breast
KM12 colon = system: KM12 colon
M14 melanoma = system: M14 melanoma
SF-539 CNS = system: SF-539 CNS
UACC-62 melanoma = system: UACC-62 melanoma
PC-3 prostate = system: PC-3 prostate
A549 NSCLC = system: A549 NSCLC
U251 CNS = system: U251 CNS
K-562 leukemia = system: K-562 leukemia
HT29 colon = system: HT29 colon
SK-MEL-28 melanoma = system: SK-MEL-28 melanoma
SK-OV-3 ovarian = system: SK-OV-3 ovarian
CAKI-1 renal = system: CAKI-1 renal
HL-60(TB) leukemia = system: HL-60(TB) leukemia
HCT-116 colon = system: HCT-116 colon
SK-MEL-2 melanoma = system: SK-MEL-2 melanoma
HCC-2998 colon = system: HCC-2998 colon
CCRF-CEM leukemia = system: CCRF-CEM leukemia
RPMI-8226 leukemia = system: RPMI-8226 leukemia
A498 renal = system: A498 renal

SMILES: O=[N+]([O-])c1ccc2nnnn2c1
- TGI (ACHN renal): > 100000 nM
- TGI (SN12C renal): > 100000 nM
- TGI (UO-31 renal): > 100000 nM
- TGI (HS 578T breast): > 100000 nM
- TGI (COLO 205 colon): > 100000 nM
- TGI (TK-10 renal): > 100000 nM
- TGI (OVCAR-8 ovarian): > 100000 nM
- TGI (EKVX NSCLC): > 100000 nM
- TGI (NCI-H522 lung): 13200 nM
- TGI (BT-549 breast): > 100000 nM
- TGI (SF-268 CNS): > 100000 nM
- TGI (SW-620 colon): > 100000 nM
- TGI (MCF7 breast): > 100000 nM
- TGI (MALME-3M melanoma): 60500 nM
- TGI (SR leukemia): 87100 nM
- TGI (OVCAR-3 ovarian): 35200 nM
- TGI (SNB-19 CNS): > 100000 nM
- TGI (NCI/ADR-RES ovarian): > 100000 nM
- TGI (MDA-MB-231 breast): 96400 nM
- TGI (HOP-92 NSCLC): > 100000 nM
- TGI (MDA-MB-435): 32800 nM
- TGI (786-0 renal): > 100000 nM
- TGI (OVCAR-5 ovarian): > 100000 nM
- TGI (HOP-62 NSCLC): > 100000 nM
- TGI (SNB-75 CNS): > 100000 nM
- TGI (SK-MEL-5 melanoma): 41400 nM
- TGI (SF-295 CNS): > 100000 nM
- TGI (NCI-H23 lung): > 100000 nM
- TGI (OVCAR-4 ovarian): > 100000 nM
- TGI (UACC-257 melanoma): > 100000 nM
- TGI (MOLT-4 leukemia): > 100000 nM
- TGI (NCI-H226 lung): 47300 nM
- TGI (LOX IMVI melanoma): 35800 nM
- TGI (NCI-H460 lung): > 100000 nM
- TGI (IGROV1 ovarian): > 100000 nM
- TGI (RXF 393 renal): > 100000 nM
- TGI (DU-145 prostate): > 100000 nM
- TGI (HCT-15 colon): 44300 nM
- TGI (T-47D breast): > 100000 nM
- TGI (KM12 colon): > 100000 nM
- TGI (M14 melanoma): > 100000 nM
- TGI (SF-539 CNS): 65700 nM
- TGI (UACC-62 melanoma): > 100000 nM
- TGI (PC-3 prostate): > 100000 nM
- TGI (A549 NSCLC): > 100000 nM
- TGI (U251 CNS): 84900 nM
- TGI (K-562 leukemia): > 100000 nM
- TGI (HT29 colon): > 100000 nM
- TGI (SK-MEL-28 melanoma): 61800 nM
- TGI (SK-OV-3 ovarian): > 100000 nM
- TGI (CAKI-1 renal): 63100 nM
- TGI (HL-60(TB) leukemia): 74600 nM
- TGI (HCT-116 colon): 50600 nM
- TGI (SK-MEL-2 melanoma): 67100 nM

SMILES: COc1ccc(S(=O)(=O)N(Cc2ccc3c(n2)C=CC(C)(C)O3)C2CCC2)cc1OC
- GI50 (ACHN renal): < 10 nM
- TGI (ACHN renal): 73.4 nM
- GI50 (SN12C renal): < 10 nM
- TGI (SN12C renal): 161 nM
- GI50 (UO-31 renal): < 10 nM
- TGI (UO-31 renal): 871 nM
- GI50 (HS 578T breast): < 10 nM
- TGI (HS 578T breast): 67.7 nM
- GI50 (COLO 205 colon): < 10 nM
- TGI (COLO 205 colon): 53.7 nM
- GI50 (TK-10 renal): < 10 nM
- TGI (TK-10 renal): 1590 nM
- GI50 (OVCAR-8 ovarian): < 10 nM
- GI50 (NCI-H522 lung): < 10 nM
- TGI (NCI-H522 lung): 76.8 nM
- GI50 (BT-549 breast): < 10 nM
- TGI (BT-549 breast): 171 nM
- GI50 (SF-268 CNS): < 10 nM
- TGI (SF-268 CNS): 1130 nM
- GI50 (SW-620 colon): < 10 nM
- TGI (SW-620 colon): > 35100 nM
- GI50 (MCF7 breast): 16.9 nM
- TGI (MCF7 breast): > 38200 nM
- GI50 (MALME-3M melanoma): < 10 nM
- TGI (MALME-3M melanoma): 20.9 nM
- GI50 (SR leukemia): < 10 nM
- TGI (SR leukemia): 32.4 nM
- GI50 (OVCAR-3 ovarian): < 10 nM
- TGI (OVCAR-3 ovarian): 95.5 nM
- GI50 (NCI/ADR-RES ovarian): 130 nM
- TGI (NCI/ADR-RES ovarian): > 100000 nM
- GI50 (MDA-MB-231 breast): < 10 nM
- TGI (MDA-MB-231 breast): 13.1 nM
- GI50 (HOP-92 NSCLC): < 10 nM
- TGI (HOP-92 NSCLC): < 10 nM
- GI50 (MDA-MB-435): < 10 nM
- TGI (MDA-MB-435): 422 nM
- GI50 (786-0 renal): < 10 nM
- TGI (786-0 renal): 374 nM
- GI50 (HCC-2998 colon): < 10 nM
- TGI (HCC-2998 colon): 3790 nM
- GI50 (OVCAR-5 ovarian): < 10 nM
- TGI (OVCAR-5 ovarian): 7250 nM
- GI50 (HOP-62 NSCLC): < 10 nM
- TGI (HOP-62 NSCLC): 1290 nM
- GI50 (SNB-75 CNS): < 10 nM
- TGI (SNB-75 CNS): 238 nM
- GI50 (SK-MEL-5 melanoma): < 10 nM
- TGI (SK-MEL-5 melanoma): 37.6 nM
- GI50 (SF-295 CNS): 13.4 nM
- TGI (SF-295 CNS): 542 nM
- GI50 (NCI-H23 lung): 14.5 nM
- TGI (NCI-H23 lung): 1050 nM
- GI50 (OVCAR-4 ovarian): < 10 nM
- TGI (OVCAR-4 ovarian): 266 nM
- GI50 (UACC-257 melanoma): < 10.5 nM
- TGI (UACC-257 melanoma): 239 nM
- GI50 (MOLT-4 leukemia): < 10 nM
- TGI (MOLT-4 leukemia): 35.5 nM
- GI50 (NCI-H226 lung): 10.1 nM
- TGI (NCI-H226 lung): 3750 nM
- GI50 (CCRF-CEM leukemia): < 10 nM
- TGI (CCRF-CEM leukemia): 92.2 nM
- GI50 (LOX IMVI melanoma): < 10 nM
- TGI (LOX IMVI melanoma): 176 nM
- GI50 (NCI-H460 lung): 19.6 nM
- GI50 (IGROV1 ovarian): < 10 nM
- TGI (IGROV1 ovarian): 262 nM
- GI50 (RXF 393 renal): < 10 nM
- TGI (RXF 393 renal): 222 nM
- GI50 (RPMI-8226 leukemia): 33.1 nM
- TGI (RPMI-8226 leukemia): 163 nM
- GI50 (A498 renal): < 10 nM
- TGI (A498 renal): 43.1 nM
- GI50 (DU-145 prostate): < 10 nM
- TGI (DU-145 prostate): 3450 nM
- GI50 (HCT-15 colon): 15.4 nM
- TGI (HCT-15 colon): > 33600 nM
- GI50 (T-47D breast): < 10 nM
- TGI (T-47D breast): 231 nM
- GI50 (KM12 colon): < 10 nM
- TGI (KM12 colon): > 37700 nM
- GI50 (M14 melanoma): < 10 nM
- TGI (M14 melanoma): 228 nM
- GI50 (SF-539 CNS): < 10 nM
- TGI (SF-539 CNS): 378 nM
- GI50 (UACC-62 melanoma): < 10 nM
- TGI (UACC-62 melanoma): 50 nM
- GI50 (PC-3 prostate): < 10 nM
- TGI (PC-3 prostate): 2370 nM
- GI50 (A549 NSCLC): 23.3 nM
- TGI (A549 NSCLC): 1660 nM
- GI50 (U251 CNS): < 10 nM
- TGI (U251 CNS): 883 nM
- GI50 (K-562 leukemia): < 10 nM
- TGI (K-562 leukemia): > 100000 nM
- GI50 (HT29 colon): 21 nM
- TGI (HT29 colon): > 36600 nM
- GI50 (SK-MEL-28 melanoma): < 10 nM
- TGI (SK-MEL-28 melanoma): 461 nM
- GI50 (SK-OV-3 ovarian): < 10 nM
- TGI (SK-OV-3 ovarian): < 10 nM
- GI50 (CAKI-1 renal): < 10 nM
- TGI (CAKI-1 renal): 145 nM
- GI50 (HL-60(TB) leukemia): < 10 nM
- TGI (HL-60(TB) leukemia): 24.9 nM
- GI50 (HCT-116 colon): < 10 nM
- TGI (HCT-116 colon): 4050 nM
